Assay [1] deals with C. glabrata. As to the kind of experiment: Minimal inhibitory concentration, planktonic cells (CLSI M27). Type of assay: cell-based, Candida glabrata. Conditions: Nakaseomyces glabratus, growth reduced to 50% of untreated control. On the procedure: (§1) The minimal inhibitory concentration (MIC) was determined following the standard Clinical and Laboratory Standards Institute (CLSI) protocol M27 (Rex JH, and Clinical and Laboratory Standards Institute (2008). Reference method for broth dilution antifungal susceptibility testing of yeasts: approved standard, 3rd ed. National Committee for Clinical Laboratory Standards, Wayne, Pa.) for yeast strains or the standard CLSI protocol […] (Clinical and Laboratory Standards Institute (2008). Reference method for broth dilution antifungal susceptibility testing of filamentous fungi. Clinical and Laboratory Standards Institute, Wayne, Pa.) for filamentous fungi. For yeast strains media was inoculated with an overnight culture to an OD600 of 0.001 (1^04 cells/mL). Serial dilutions of substances were added and cells were incubated at 37° C. without shaking for 48±1 h. MIC tests were performed in flat-bottom 96 well plates (Greiner Bio One, Austria) using 100 μL suspension per well sealed with gas-permeable foils. After incubation, OD490 values were measured using 96-well plate reader and growth capacity was analyzed by setting the corresponding control to 100%. Different flavones were randomly chosen and tested for their effects on planktonic cells and biofilms of C. albicans and C. glabrata to determine corresponding IC50 values (the concentration that is required to reduce growth (minimal inhibitory concentration=MIC) or biofilm formation (biofilm inhibitory concentration=BIC) to 50% compared to the untreated control).

The subject of assay [2] is C. glabrata biofilm. As to the kind of experiment: Biofilm inhibition concentration (XTT). The assay is classed as cell-based, Candida glabrata. Conditions: Nakaseomyces glabratus, read-out: BIC50. The protocol:
(§2) In short, RPMI medium was inoculated with an overnight culture to an OD (optical density) of 0.1, transferred to a U-bottom 96-well plate (MLS, Belgium) and treated with serial dilutions of substances. After the adherence phase (1 h, 37° C.), supernatant was removed, adherent cells were washed with PBS and fresh media (including substances) was added. Biofilms were then allowed to grow for 24 h at 37° C. Formed biofilms were then analyzed for their metabolic activity. Therefore, C. albicans biofilm cells were treated with CTB (cell titer Blue®; Promega, Germany), diluted 1:100 in PBS. […] Sigma, Germany or ABCR, Germany) was used instead. Thereby, biofilm cells were treated with an XTT solution (0.25 mg/mL XTT+0.1 μM menadione in PBS) at 37° C. in the dark and OD490 was measured.
(Tetrazolium assays rely on reduction of a dye to a coloured formazan, in cell work by metabolically active cells.)

For assay [3], the system named is C. albicans. Nature of the assay: Minimal inhibitory concentration, planktonic cells (CLSI M27). The assay is classed as cell-based. The note with it: Candida albicans, growth reduced to 50% of untreated control. On the procedure:
as §1

The subject of assay [4] is C. albicans. Nature of the assay: Checkerboard / combination assay, growth of planktonic cells (OD490). The assay is classed as cell-based, Candida albicans. Conditions: for antimycotic effect in combination with other known antimycotics: FIGS. 6 and 7; for effect on antifungal activity of azole antifungals (growth, OD490): flavone 6.25-25 μM with 0.1 μM miconazole or 1 μM fluconazole. The protocol: The minimal inhibitory concentration (MIC) was determined following the standard Clinical and Laboratory Standards Institute (CLSI) protocol M27 (Rex JH, and Clinical and Laboratory Standards Institute (2008). Reference method for broth dilution antifungal susceptibility testing of yeasts: approved standard, 3rd ed. National Committee for Clinical Laboratory Standards, Wayne, Pa.) for yeast strains or the standard CLSI protocol M38 (Clinical and Laboratory Standards Institute (2008). Reference method for broth dilution antifungal susceptibility testing of filamentous fungi. Clinical and Laboratory Standards Institute, Wayne, Pa.) for filamentous fungi.
For yeast strains media was inoculated with an overnight culture to an OD600 of 0.001 (1^04 cells/mL). Serial dilutions of substances were added and cells were incubated at 37° C. without shaking for 48±1 h.
MIC tests were performed in flat-bottom 96 well plates (Greiner Bio One, Austria) using 100 μL suspension per well sealed with gas-permeable foils. After incubation, OD490 values were measured using 96-well plate reader and growth capacity was analyzed by setting the corresponding control to 100%.
For synergy testing of different combinations, checkerboard assays were performed. Therefore, serial dilutions of two different compounds were combined for MIC, BIC or BEC testing as described above. Antifungal activity of substances alone or in combination was determined by setting the corresponding control to 100%.

Assay [5] concerns C. albicans biofilm. As to the kind of experiment: Biofilm inhibition concentration (CTB staining). The assay is classed as cell-based. Conditions: Candida albicans; C. albicans biofilm formation reduced to 50% of untreated control; read-out: BIC50. The protocol:
as §2, with “The biofilm inhibition concentration (BIC) was determined as described in […] et al. (J Antimicrob Chemother 69(2014): 1035-1044). In” for “In”, “PBS. After incubation for 1 h at 37° C. in the dark fluorescence intensity was measured using a 96-well plate reader (Ex: 535, Em: 590, sens 65).” for “PBS.”, “measured. As for MIC, biofilm inhibition was analyzed by setting the corresponding control to 100%. Different flavones were randomly chosen and tested for their effects on planktonic cells and biofilms of C. albicans and C. glabrata to determine corresponding IC50 values (the concentration that is required to reduce growth (minimal inhibitory concentration=MIC) or biofilm formation (biofilm inhibitory concentration=BIC) to 50% compared to the untreated control).” for “measured.”

Where [6] appears, read: C. glabrata biofilm formation reduced to 50% of untreated control.

Here are results for 13 compounds from patent publication US20220249431A1, “ANTIMYCOTIC” (Karl-Franzens-Universität Graz, priority 2019, published 2022).

≈ marks a conversion by molar mass, not a printed value. Where two headings read alike, the source gives them in different places.

The MIC50 is the lowest concentration that inhibits either 50% of growth or 50% of the strains tested, depending on the study. Read a high MIC50 as weaker potency.

`O=c1c(O)c(-c2ccccc2O)oc2ccccc12` [2′,3-dihydroxyflavone]: the MIC50 in assay [1] was determined as 53.9 ± 2.1 µM (≈ 13.7 µg/mL). Also, the IC50 in assay [2] (setting [6]) is 124 ± 34.7 µM.

As to `O=c1c(O)c(-c2cccc(O)c2)oc2ccccc12` [3,3′-dihydroxyflavone], the MIC50 in assay [3] was determined as 254 ± 68.5 µM (≈ 64.7 µg/mL); in assay [1], 5.9 ± 0.1 µM (≈ 1.5 µg/mL). Also, in assay [2] (setting [6]), the IC50 was found to be 21.5 ± 3.6 µM.

Take `O=c1c(O)c(-c2ccccc2)oc2cc(O)ccc12` [3,7-dihydroxyflavone]: in assay [2], the IC50 turned out to be 62.5 ± 26 µM.

`O=c1c(O)c(-c2ccccc2)oc2ccccc12` [3-hydroxyflavone]: the MIC50 in assay [1] was determined as 6.2 ± 0.2 µM (≈ 1.48 µg/mL).

For the compound `O=c1cc(-c2ccc(O)c(O)c2)oc2cc(O)ccc12` [3′,4′,7-trihydroxyflavone], in assay [4], the “antimycotic effect in combination with other known antimycotics” value (shortened to “antimycotic effect in combination”) is listed as “synergistic antimycotic effect” and the “effect on antifungal activity of azole antifungals (growth, OD490)” value is recorded as “enhance the antifungal activity of azole antifungals”.

For the compound `O=c1cc(-c2ccc(O)c(O)c2)oc2ccccc12` [3′,4′-dihydroxyflavone], in assay [5], the IC50 came out at 147 ± 17.3 µM. Also, the “effect on antifungal activity of antimycotics (growth, OD490)” value in assay [4] (12.5-25 μM 3′,4′-DHF with miconazole, fluconazole, ketoconazole or clotrimazole) is “enhances the antifungal activity of antimycotics”. Also, in assay [4], the “antimycotic effect in combination” value was “synergistic antimycotic effect”.

In the case of `O=c1cc(-c2cccc(O)c2)oc2ccccc12` [3′-hydroxyflavone], the IC50 in assay [2] (setting [6]) came out at 26.7 ± 3 µM.

With `O=c1cc(-c2ccc(O)cc2)oc2cccc(O)c12` [4′,5-dihydroxyflavone, reference compound], the MIC50 in assay [3] and in assay [1] was over 400 µM throughout. For the same compound, the IC50 in assay [5] and in assay [2] (setting [6]) was over 400 µM in each case.

Regarding `O=c1cc(-c2ccccc2)oc2cc(O)cc(O)c12` [5,7-dihydroxyflavone, reference compound], the MIC50 in assay [3] and in assay [1] was over 400 µM in each case. Also, the IC50 in assay [5] and in assay [2] (setting [6]) was over 400 µM throughout.

With `O=c1cc(-c2ccccc2)oc2cc(O)c(O)cc12` [6,7-dihydroxyflavone], the MIC50 in assay [1] came out at 15.7 ± 4.1 µM (≈ 3.99 µg/mL). Further, the IC50 in assay [2] (setting [6]) was determined as 41.7 ± 9.1 µM.

In the case of `O=c1cc(-c2ccccc2)oc2ccc(O)cc12` [6-hydroxyflavone], in assay [2] (setting [6]), the IC50 came to 129 ± 14.2 µM.

Take `O=c1cc(-c2ccccc2)oc2cc(O)ccc12` [7-hydroxyflavone]: the IC50 in assay [2] is 17.4 ± 7 µM.

Take `O=c1cc(-c2ccc(O)c(O)c2)oc2cc(O)cc(O)c12` [luteolin, 3′,4′,5,7-tetrahydroxyflavone]: in assay [4], the “antimycotic effect in combination” value is reported as “synergistic antimycotic effect” and the “effect on antifungal activity of azole antifungals (growth, OD490)” value is recorded as “enhance the antifungal activity of azole antifungals”.
